For 15 compounds, IC50 results are on record in patent publication US12351570B2 (MERCK PATENT GMBH, priority 2018, dated 2025).

Structures are written as SMILES. Structures can show the parent of a compound that is named as a salt.

The first test relates to MDA-MB-231 cells. In words: Extracellular lactate production inhibition after 4 h, MDA-MB-231. Conditions: Homo sapiens, MDA-MB-231.
For the compound `COc1ccc(S(=O)(=O)Nc2ccc(F)cc2C#Cc2ccc(C(=O)O)nc2)c2ncccc12` [Compound 185, 5-{2-[5-fluoro-2-(5-methoxyquinoline-8-sulfonamido)phenyl]ethynyl}pyridine-2-carboxylic acid], the 50% inhibitory concentration (IC50) (usually the concentration that inhibits the measured activity by half) is 10 to 100 nM.
Same read-out and setting: the same measure for `O=C(O)c1ccc(C#Cc2ccccc2NS(=O)(=O)/C=C/c2ccccc2)cc1` [Compound 334, 4-(2-{2-[(E)-2-phenylethenesulfonamido]-phenyl}ethynyl)benzoic acid]: 100 to 1000 nM.
On to `COc1cccc(S(C)(=O)=Nc2ccccc2C#Cc2ccc(C(=O)O)nc2)c1` (stereo not drawn) [Compound 434, 5-[2-(2-{[(3-methoxyphenyl)(methyl)oxo-λ6-sulfanylidene]amino}phenyl)ethynyl] pyridine-2-carboxylic acid], for which the IC50 lay within 100 to 1000 nM.
The compound `CNc1cc(C#Cc2cc(Cl)ccc2NS(=O)(=O)c2c(C)ccc3cccnc23)cnc1C(=O)O` [Compound 237, 5-{2-[5-chloro-2-(7-methylquinoline-8-sulfonamido)phenyl]ethynyl}-3-(methylamino)pyridine-2-carboxylic acid] registered an IC50 of 1 to 10 nM.
The same measure, in the same setting: then `Cc1c(S(=O)(=O)Nc2ccccc2C#Cc2ccc(C(=O)O)nc2)ccc2ccccc12` [Compound 97, 5-{2-[2-(1-methylnaphthalene-2-sulfonamido)phenyl]ethynyl}pyridine-2-carboxylic acid], with 100 to 1000 nM; and `COc1ccc(C#Cc2ccc(C(=O)O)nc2)c(NS(=O)(=O)c2ccc(OC)c3cccnc23)c1` [Compound 197, 5-{2-[4-methoxy-2-(5-methoxyquinoline-8-sulfonamido)phenyl]ethynyl}pyridine-2-carboxylic acid], with 100 to 1000 nM; and `O=C(O)c1ccc(C#Cc2ccccc2NS(=O)(=O)c2ccc3ncccc3c2)cc1` [Compound 55, 4-{2-[2-(quinoline-6-sulfonamido)phenyl]ethynyl}benzoic acid], with 1000 to 100000 nM.
`O=C(O)c1ccc(C#Cc2ccccc2S(=O)(=O)Nc2cccc3cccnc23)cn1` [Compound 432, 5-(2-{2-[(quinolin-8-yl)sulfamoyl]phenyl}ethynyl)pyridine-2-carboxylic acid] displayed an IC50 of 1000 to 100000 nM.
The same measure, in the same setting: the same measure for `Cn1ccc2c(S(=O)(=O)Nc3ccccc3C#Cc3ccc(C(=O)O)nc3)cccc21` [Compound 303, 5-{2-[2-(1-methyl-1H-indole-4-sulfonamido)phenyl]ethynyl}pyridine-2-carboxylic acid]: 100 to 1000 nM; for `CCc1ccc(NS(=O)(=O)c2c(C)ccc3cccnc23)c(C#Cc2ccc(C(=O)O)nc2)c1` [Compound 417, 5-{2-[5-ethyl-2-(7-methylquinoline-8-sulfonamido)phenyl]ethynyl}pyridine-2-carboxylic acid]: 1 to 10 nM.
As for `COc1cc(C(=O)O)ncc1C#Cc1cc(Cl)ccc1NS(=O)(=O)c1ccc(OC)c(C)c1C` [Compound 243, 5-{2-[5-chloro-2-(4-methoxy-2,3-dimethylbenzenesulfonamido)-phenyl]ethynyl}-4-methoxypyridine-2-carboxylic acid], the half-maximal inhibitory concentration (IC50) was in the range of 1 to 10 nM.
On the same count and under the same terms, the same measure for `Cc1ccc2cccnc2c1S(=O)(=O)Nc1ccc(Br)cc1C#Cc1cnc(C(=O)O)c2ccccc12` [Compound 233, 4-{2-[5-bromo-2-(7-methylquinoline-8-sulfonamido)phenyl]ethynyl}isoquinoline-1-carboxylic acid]: 10 to 100 nM.
Compound `O=C(O)c1ccc(C#Cc2ccccc2NS(=O)(=O)c2ccc3ccccc3c2)cc1F` [Compound 14, 2-fluoro-4-{2-[2-(naphthalene-2-sulfonamido)phenyl]ethynyl}benzoic acid] had a 50% inhibitory concentration (IC50) of 100 to 1000 nM.
As for `O=C(O)c1ccc(C#Cc2ccccc2NS(=O)(=O)c2cccc3ncccc23)cc1` [Compound 35, 4-{2-[2-(quinoline-5-sulfonamido)phenyl]ethynyl}benzoic acid], the IC50 fell in the range of 1000 to 100000 nM.

The test is the same for the next values; noted with them: Table 3; group class A-D; the table does not say which assay or cell line ("the assays described above").
Regarding `O=CN(Cc1ccc2ncccc2c1)c1ccccc1C#Cc1ccc(C(=O)O)nc1` [Compound 205, trifluoroacetate], the concentration for half-maximal inhibition (IC50) fell in the range of 1000 to 100000 nM.
